Experimental data as given in patent publication US10012655B2, “Method for quantitating total HMGB1 protein in biological samples” (INSTITUT PASTEUR, priority 2008, dated 2018).

Key:
iDCs [1] = test: aNK-induced apoptosis of iDCs at NK:DC ratio 5:1 (7-AAD assay); type: cell-based, human
Protocol: (a) CD56^+ NK cells were purified from the blood of healthy donors. NK cells were maintained in culture with suboptimal concentrations of interleukin-2 (IL-2) (100 ng/ml) (rNK cells) or activated (aNK cells) by the addition PHA (10 μg/ml) and IL-2 (10 μg/ml) to cultures. […] Data represent the mean±sd of three independent experiments. […] In some cases, iDCs were cocultured with aNK cells at the NK:DC ratio of 5:1. […] Cell death was then quantified with the 7-AAD assay. […] (g) iDCs were cultured for 24 h either alone or with aNK cells (NK:DC ratio of 5:1), in the absence or presence of blocking anti-DR4 antibodies (250 ng/ml). The viability status of DCs was determined by flow cytometry with the 7-AAD assay. […]
FIGS. 11(a)-(b). […] Cell death was then quantified with the 7-AAD assay. […]
rNK or aNK were cocultured during 24 h with iDCs or mDCs at a ratio of 1:5 (2×105 NK+10×105 DC/1 ml), unless otherwise indicated. DC survival was determined with the 7-AAD assay, as described previously55. […]
Immature DCs (iDCs) were prepared from sorted monocytes from healthy donors, cultured for 6 days in the presence of IL-4 and GM-CSF. […] The influence of NK-DC interaction on DC's maturation and apoptosis was analyzed using multiparametric flow cytometry, combining 7-AAD staining with membrane and intracellular staining with mAbs specific for HLA-DR, DC-SIGN, CD83, CD86, DR4, mTRAIL, etc.

iDCs [2] = test: aNK-dependent maturation of iDCs in 24 h aNK-iDC coculture (CD86/HLA-DR flow cytometry); type: cell-based, human; details: uninfected iDCs, inhibitor 10 μg/ml added at initiation
Protocol: FIG. 3 (a)-(e). aNK-dependent maturation of HIV-1-infected iDCs is mediated by HMGB1 and involves RAGE. (a) Left panel: iDCs were cultured for 24 h either alone or with aNK cells, in the presence of blocking anti-HMGB1 antibodies (10 μg/ml) or glycyrrhizin (10 μg/ml). The maturation status of DCs was determined by flow cytometry with CD86 and HLA-DR—specific antibodies. Right panel: same experiment, but performed with HIV-1 infected iDCs. Data represent mean±sd of at least three independent experiments, and statistical comparisons were made with the non parametric Mann-Whitney test. * p<0.05. (b) iDC (10^6 cells/ml) were cultured for 48 h with increasing concentrations (1-10 μg/ml) of rh-HMGB1. Cells were then stained with anti-CD86, -HLA-DR, -CD80, -CD83, DC-LAMP and -CD40 antibodies and analyzed by flow cytometry. (c) Influence of rh-HMGB1 on cytokine and chemokine production (determined by MAP) by DCs. iDCs (10^6 cells/ml) were incubated for 48 h in medium or in presence of rh-HMGB1 (1 or 10 μg/ml). As a positive control, iDCs were stimulated with LPS (DC0). […] (e) iDC, DC0, uninfected or HIV-1-infected iDC cocultured for 24 h with aNK cells, were incubated with rh-HMGB1 (1 μg/ml) and subsequently stained with anti-RAGE antibodies and analyzed by flow cytometry. […]

R5-HIV-1Ba-L = test: HIV-1 replication in infected iDCs, p24 ELISA in culture supernatant; type: cell-based; details: inhibitor 10 μg/ml, 3 days
Protocol: FIGS. 6 (a), (b) and (c). Exogenous rh-HMGB1 triggers HIV-1 and HIV-2 replication in iDC. (a) HIV-1-infected iDC were cultured alone or in the presence of aNK cells for 3 days. Rh-HMGB1 (1 μg/ml) was added in some cultures. HIV replication was measured by p24 quantification in culture supernatant (b) HIV1-infected iDC were cultured alone or in the presence of aNK cells for 3 days. Blocking anti-HMGB1 antibodies (10 μg/ml) or glycyrrhizin (10 μg/ml) were added at culture initiation. HIV replication was measured by p24 quantification in culture supernatant. The mean±sd of three independent experiments is shown. Statistical comparisons were made with the non parametric Mann-Whitney test. * p<0.05; (c) HIV-2-infected iDC were cultured alone or in the presence of aNK cells for 3 days. Rh-HMGB1 (1 μg/ml) was added in some cultures. HIV replication was measured by p24 quantification in culture supernatant.
Virus stock preparation was prepared by amplification of R5-HIV-1Ba-L on MDM from healthy donors. Viral stock was then clarified by centrifugation prior to determination of HIV1 p24 concentration. iDCs were plated in 96-well culture plates at 200,000 cells/well and incubated for 3 hours at 37° C. in a 5% CO2 atmosphere with R5-HIV-1BAL at various concentrations (0.001 to 10 ng p24/ml). Cells were harvested, washed four times with media containing 10% FCS and, when indicated, rNK or aNK cells were added at a NK:DC ratio of 1:5, unless otherwise indicated. NK-DC cocultures lasted 24 h before analysis of the maturation stage of DCs and/or quantification of viral production. In some experiments (FIG. 6), HIV-1 infected iDCs were incubated alone or with aNK cells for 3 days, in the presence of rh-HMGB1 (1 μg/ml) (R&DSystems), and in some cultures in the presence of rabbit antiHMGB1 Abs (10 μg/ml) (Abcam, Cambridge, UK) or Glycyrrhizin (10 μg/ml).
The concentration of HIV-1 in the supernatant of infected cell cultures was determined by measuring the amount of p24 protein by ELISA (Ingen, Belgium). DNA from cells was extracted using the GIAamp DNA Blood Mini Kit (Qiagen, Basel, Switzerland) and quantified HIV-1 proviral load by RT-PCR as described previously54. The frequency of HIV-1-infected cells was determined by flow cytometry to detect intracellular p24 molecule. Cells were surface stained with antibodies specific for CD40 (BD Biosciences, San Jose, Calif.) to target DC and intracellular stained with p24-specific antibodies (Coulter). Stained cells were fixed in 1% PFA, immediately acquired on a FACScalibur (Becton Dickinson) and analyzed with FlowJo software. In some experiments infected DCs were imaged, after immunofluorescence, by laser scanning confocal microscopy.

HIV-infected DCs = test: TRAIL-induced apoptosis of iDCs and HIV-infected DCs (7-AAD assay); type: cell-based, human; details: 24 h with 1-1000 ng/ml rhs-TRAIL
Protocol: FIGS. 10(a)-(d). R5-HIV-infected DCs are resistant to killing by aNK cells, although TRAIL secretion persists in the presence of HIV-1 (a) iDCs were either infected with R5-HIV-1BaL (1 ng/ml of p24) for 24 h or uninfected, and after several washes, they were incubated with aNK cells at the ratios of 1:5 and 5:1. iDCs viability was assayed with the 7-AAD test by flow cytometry. Living cells are 7-AAA^−, apoptotic cells 7-AAD^+, and apoptotic debris are 7-AAD^−FSC^low. Dot plots represent one of at least three independent experiments. […] DCs were uninfected (iDCs), infected with R5-HIV-1 at 1 ng/ml of p24 (HIV-DCs) or stimulated with LPS for 48 h. Cells were then stained with CD86 and HLA-DR. Data represent one of at least three independent experiments. (c) TRAIL secretion is not affected by HIV infection of iDCs. 24 h cell-free culture supernatants of iDCs, HIV-infected DCs (10^6/ml), aNK cells-iDCs cocultures (ratio 5:1) and aNK cells-HIV-infected DCs cocultures (ratio 5:1) were tested for soluble TRAIL (sTRAIL) content by ELISA. Data represent the mean±sd of three independent experiments. […] Cell death was then quantified with the 7-AAD assay. The mean±sd of three independent experiments was presented.

In the case of C/C=C/[C@H]1O[C@@](O)([C@@H](C)[C@H](O)[C@H](C)[C@H]2OC(=O)/C(OC)=C/C(C)=C/[C@@H](C)[C@@H](O)[C@@H](CC)[C@@H](O)[C@H](C)C/C(C)=C/C=C/[C@@H]2OC)C[C@@H](O[C@H]2C[C@@H](O)[C@H](OC(N)=O)[C@@H](C)O2)[C@@H]1C [Concanamycin A], the “NK-dependent iDCs apoptosis” value (iDCs [1]; uninfected iDCs, aNK cells, NK:DC ratio 5:1, 24 h) is reported as “no effect”.

CC1(C)[C@@H](O[C@H]2O[C@H](C(=O)O)[C@@H](O)[C@H](O)[C@H]2O[C@@H]2O[C@H](C(=O)O)[C@@H](O)[C@H](O)[C@H]2O)CC[C@]2(C)[C@H]3C(=O)C=C4[C@@H]5C[C@@](C)(C(=O)O)CC[C@]5(C)CC[C@@]4(C)[C@]3(C)CC[C@@H]12 [glycyrrhizin, reference compound] was tested, and the “proportions of mature DCs (CD86bright HLA-DRbright)” value (iDCs [2]) was “reduced the proportions of mature DCs (identified as CD86brightHLA-DRbright) to the baseline level observed without aNK cells”, the “resistance of HIV-1-infected iDCs to aNK-induced apoptosis (inhibition assays)” value (iDCs [1]; HIV-1-infected iDCs, NK:DC ratio 5:1, AZT added at infection, inhibitors at coculture initiation) was “found dependent on HMGB1” and the “HIV-1 production (p24 in supernatant)” value (R5-HIV-1Ba-L; infected DC cocultured with aNK cells) was “abrogated HIV-1 production”. For the same molecule, the “HIV-1 production (p24 in supernatant)” value (R5-HIV-1Ba-L; infected DC cultured alone) was “abrogated HIV-1 production”.

B1: rhs-TRAIL: recombinant human soluble TRAIL (protein, UniProt P50591 39-281, looked up)
extracellular domain: TNELKQMQDKYSKSGIACFLKEDDSYWDPNDEESMNSPCWQVKWQLRQLVRKMILRTSEETISTVQEKQQNISPLVRERGPQRVAAHITGTRGRSNTLSSPNSKNEKALGRKINSWESSRSGHSFLSNLHLRNGELVIHEKGFYYIYSQTYFRFQEEIKENTKNDKQMVQYIYKYTSYPDPILLMKSARNSCWSKDAEYGLYSIYQGGIFELKENDRIFVSVTNEHLIDMDHEASFFGAFLVG
modifications: extracellular domain
For B1, the “cell death of HIV-1-infected DCs” value (HIV-infected DCs) was “still susceptible to TRAIL-induced apoptosis”.
